Values of other authors as cited in publication PMC12866175 (European journal of nuclear medicine and molecular imaging, 2021).

How the values were obtained:
NETs = conditions: cited from earlier work
tumor = conditions: human, in vivo; cited from earlier work

Substance: [^177Lu]Lu-DOTA-TATE
- patients achieving stable disease (NETs): 26–55%
- patients treatment refractory (NETs): 18–32%
- time after starting treatment within which half progress (NETs): 2 to 3 years
- tumor residence time compared with [^177Lu]Lu-DOTATOC (tumor): greater tumor residence time
